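Method: 48-hour compound exposure of cells in 96-well plates, five concentrations, linear interpolation of endpoints. At the GI50, growth is halved.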 The source made the active and inactive calls. Rule as the data show it: active = GI50 up to about 1.1 µM and inactive = higher.
What was measured:
Experiment in all cases: NCI anticancer screen, dose series, 48 h
SF-295 = tested on: SF-295
SK-OV-3 = tested on: SK-OV-3
UO-31 = tested on: UO-31
MDA-MB-435 = tested on: MDA-MB-435
NCI-H522 = tested on: NCI-H522
A549 = tested on: A549
MDA-N = tested on: MDA-N
DU-145 = tested on: DU-145
ACHN = tested on: ACHN
HT-29 = tested on: HT-29
OVCAR-5 = tested on: OVCAR-5
M14 = tested on: M14
HOP-92 = tested on: HOP-92
NCI-H226 = tested on: NCI-H226
TK-10 = tested on: TK-10
A498 = tested on: A498
PC-3 = tested on: PC-3
HCT-116 = tested on: HCT-116
SF-539 = tested on: SF-539
SK-MEL-2 = tested on: SK-MEL-2

Measured: GI50

CCOP(=O)(OCC)C(Nc1cccc([N+](=O)[O-])c1)c1ccccc1 (configuration not stated)
inactive: SF-295 > 100 µM | SK-OV-3 > 100 µM | UO-31 48.8 µM | MDA-MB-435 > 100 µM | NCI-H522 90.2 µM | A549 57.1 µM | MDA-N > 100 µM | DU-145 > 100 µM | ACHN > 100 µM | HT-29 75 µM | OVCAR-5 > 100 µM | M14 > 100 µM | HOP-92 62.4 µM | NCI-H226 > 100 µM | TK-10 > 100 µM | A498 > 100 µM | PC-3 38.6 µM | HCT-116 65 µM | SF-539 > 100 µM | SK-MEL-2 82.4 µM

O=C(O)/C=C\C(=O)Nc1ccccn1
inactive: SF-295 > 100 µM | SK-OV-3 > 100 µM | UO-31 > 100 µM | MDA-MB-435 > 100 µM | NCI-H522 > 100 µM | A549 > 100 µM | MDA-N > 100 µM | DU-145 > 100 µM | ACHN > 100 µM | HT-29 > 100 µM | OVCAR-5 > 100 µM | M14 > 100 µM | HOP-92 > 100 µM | NCI-H226 > 100 µM | A498 > 100 µM | PC-3 > 100 µM | HCT-116 > 100 µM | SF-539 > 100 µM | SK-MEL-2 > 100 µM

O=[N+]([O-])C(/C=C(\Cl)n1nnc2ccccc21)=C(/Cl)n1nnc2ccccc21
inactive: SF-295 > 100 µM | SK-OV-3 > 100 µM | UO-31 > 100 µM | MDA-MB-435 > 100 µM | NCI-H522 > 100 µM | A549 > 100 µM | MDA-N > 100 µM | DU-145 > 100 µM | ACHN > 100 µM | HT-29 > 100 µM | OVCAR-5 > 100 µM | M14 > 100 µM | HOP-92 > 100 µM | NCI-H226 > 100 µM | TK-10 > 100 µM | A498 > 100 µM | PC-3 > 100 µM | HCT-116 > 100 µM | SF-539 > 100 µM | SK-MEL-2 > 100 µM

CSc1nc(C#N)c(N)n1C
inactive: SF-295 > 100 µM | SK-OV-3 > 100 µM | UO-31 > 100 µM | MDA-MB-435 > 100 µM | NCI-H522 > 100 µM | A549 > 100 µM | MDA-N > 100 µM | DU-145 64.1 µM | ACHN > 100 µM | OVCAR-5 > 100 µM | M14 > 100 µM | HOP-92 > 100 µM | NCI-H226 > 100 µM | TK-10 > 100 µM | A498 > 100 µM | PC-3 > 100 µM | HCT-116 > 100 µM | SF-539 > 100 µM | SK-MEL-2 > 100 µM

CC(C)(C)C1CCC2(CC1)CCN(CCCN1CCOCC1)CC2
inactive: SF-295 > 47.1 µM | SK-OV-3 > 100 µM | UO-31 48.3 µM | MDA-MB-435 28.2 µM | NCI-H522 > 51.1 µM | A549 > 49.9 µM | MDA-N 28.8 µM | DU-145 > 100 µM | ACHN > 73.3 µM | HT-29 6.5 µM | OVCAR-5 > 60 µM | M14 12.2 µM | HOP-92 17.7 µM | NCI-H226 > 95.7 µM | TK-10 > 100 µM | A498 34.7 µM | PC-3 > 100 µM | HCT-116 27.6 µM | SF-539 18.7 µM | SK-MEL-2 20 µM

Cc1cc2c(O)c(c1)COCc1cc(C)cc(c1O)COCc1cc(C)cc(c1O)COC2
inactive: SF-295 > 100 µM | SK-OV-3 > 100 µM | UO-31 > 100 µM | MDA-MB-435 > 100 µM | NCI-H522 49.2 µM | A549 > 100 µM | MDA-N > 100 µM | DU-145 > 100 µM | ACHN > 100 µM | HT-29 95.3 µM | OVCAR-5 > 100 µM | M14 > 100 µM | HOP-92 > 100 µM | NCI-H226 > 100 µM | A498 > 100 µM | PC-3 > 100 µM | HCT-116 32.7 µM | SF-539 > 100 µM | SK-MEL-2 > 100 µM

CC(=O)O[C@@H]1C(=O)N(c2ccccc2)[C@@H]1c1cc2ccccc2c2ccccc12
inactive: SF-295 38 µM | SK-OV-3 47.8 µM | UO-31 22.2 µM | MDA-MB-435 16.8 µM | NCI-H522 3.01 µM | A549 21.5 µM | MDA-N 43 µM | DU-145 40.8 µM | ACHN 29.6 µM | HT-29 29 µM | OVCAR-5 50 µM | M14 55.3 µM | HOP-92 20.8 µM | NCI-H226 7.1 µM | TK-10 30.9 µM | A498 > 100 µM | PC-3 32.9 µM | HCT-116 27.5 µM | SF-539 25.4 µM | SK-MEL-2 14.4 µM

Source: ChEMBL document CHEMBL1201862, “PubChem BioAssay data set” (2004)
